Consider two molecules from patent US11241448B2, “Methods for cancer therapy” (Millennium Pharmaceuticals, Inc., priority 2014, dated 2022).

SMILES strings stand for the structures. Structures can show the parent of a compound that is named as a salt. Some results are limits rather than exact numbers.

For series [1] the following is noted: upon contact with either plasma or aqueous solutions; cited from earlier work.
Series [2] deals with multiple myeloma patients who completed induction therapy. Kind of series: Clinical study of oral single-agent ixazomib maintenance therapy. It counts as in vivo, human. The text has this: These patients completed induction therapy and progressed to the maintenance phase.
The conditions of series [3]: in contrast to bortezomib; cited from earlier work.
Another series concerns the target receptors. The conditions noted are these: read-out: IC50 values against receptors; cited from earlier work.
The test system of another series is kinases. The conditions noted are these: read-out: IC50 values against kinases; cited from earlier work.
The subject of the next series is tumor xenografts. The settings on record: in contrast to bortezomib; cited from earlier work.
The subject of series [4] is patients with relapsed, refractory multiple myeloma. Description: Exposure-response logistic regression analyses, phase 1 study of weekly single-agent ixazomib. Type of series: in vivo, human. The conditions noted are these: starting dose 3.0 mg weekly. The text has this: The methods and results of these analyses are described below.
The metric of exposure (Ex) was AUC per day (derived from individual clearance values using population pharmacokinetics) for both exposure logistic regression analyses Ex/S and Ex/E. Ex/S analysis was done on seven adverse events (AEs): non-hematologic (non-H) (fatigue, rash, peripheral neuropathy, diarrhea) and hematologic (H) (anemia, thrombocytopenia, neutropenia). The non-hematologic adverse events data were categorized into grade≥2 vs. grade≤1 groups while hematologic adverse events data were grouped into grade≥3 vs. grade≤2. The data were categorized in this way as maintenance treatment should have a tolerable adverse events profile and contribute to acceptable quality of life. Different cut-offs were used for hematologic and non-hematologic adverse events because grade 3 hematologic adverse events may have less impact on quality of life and be more manageable than grade 2 non-hematologic adverse events such as diarrhea. For exposure efficacy (Ex/E), data were categorized as: ≥stable disease (SD) vs. progressive disease (PD). Clinical benefit rate including SD achieved in relapsed or refractory patients may be a meaningful predictor of expected response in a maintenance setting. The logistic regression analyses were done using SPLUS software version 8.1.

The test system of series [5] is patients with advanced solid tumors, lymphoma, RRMM, and relapsed or refractory AL amyloidosis. The conditions noted are these: cited from earlier work.
In series [6] the target is β1 site of the 20S proteasome (Homo sapiens, UniProt P28072). The settings on record: at higher concentrations; cited from earlier work.
The target in a further series is β5 proteasome (Homo sapiens, UniProt P28074). The conditions noted are these: in contrast to bortezomib; cited from earlier work.
For series [7], the target named is β2 site of the 20S proteasome (Homo sapiens, UniProt Q99436). The settings on record: at higher concentrations; cited from earlier work.
Where [8] appears, read: of 10 patients who improved during maintenance.

Consider `CC(C)C[C@H](NC(=O)CNC(=O)c1cc(Cl)ccc1Cl)B1OC(=O)C(CC(=O)O)(CC(=O)O)O1` [ixazomib citrate], for which the hydrolysis to ixazomib entry in [1] is “rapidly hydrolyzes”.
As usually defined, the IC50 is the concentration at which inhibition is half-maximal. In the case of `CC(C)C[C@H](NC(=O)CNC(=O)c1cc(Cl)ccc1Cl)B(O)O` [ixazomib], in [2] (after follow-up of 25.1-33.9 months), the “survival of patients who received maintenance” value is reported as “alive”. For the same molecule, in [2] (n=21, maintenance therapy), the “best overall response: complete response (CR) or better, percent of patients” value was found to be 52% and the “best overall response: very good partial response (VGPR) or better, percent of patients” value was found to be 71%. The “median duration of response” value in series [2] (n=21, range 6.7-31.18) is on record as 21.65 months. Also, in [2] (setting [8]), the “improved response CR to sCR, patients” value is listed as 2/10; the “improved response VGPR to CR, patients” value is reported as 5/10; the “improved response VGPR to near-CR (nCR), patients” value was 2/10; the “improved response VGPR to stringent complete response (sCR), patients” value is listed as 1/10. Also, the “median time to first response (≥rapid response “PR”)” value in series [2] (range 0.92-5.78) is listed as 0.99 months. Also, the “median time to best response” value in series [2] (range 1.02-24.74) is recorded as 7.46 months. Further, the tissue penetration entry in [3] is listed as “more prolonged tissue penetration”. The IC50 at receptors is greater than 10 µM. For the same molecule, the IC50 in the series with kinases is greater than 10 µM. Moreover, in the series with tumor xenografts, the “antitumor activity in tumor xenografts” value is reported as “antitumor activity in a broader range of tumor xenografts”. In series [4], the “model-predicted clinical benefit rate (≥SD)” value is given as roughly 33%, the “model-predicted incidence of grade≥2 diarrhea” value is 19%, the “model-predicted incidence of grade≥2 fatigue” value was 19% and the “model-predicted incidence of grade≥2 rash” value is reported as 16%. In addition, in series [4], the “model-predicted incidence of grade≥3 neutropenia” value is 10% and the “model-predicted incidence of grade≥3 thrombocytopenia” value is recorded as 22%. In addition, the clinical activity result in [5] (advanced solid tumors, lymphoma, RRMM, AL amyloidosis) was “early signs of activity”. In series [5] (clinical studies), the “emerging safety profile / tolerability” value is on record as “generally well tolerated” and the toxicity profile result is on record as “favorable toxicity profile with low rates of peripheral neuropathy”. The “inhibition of activity of the β1 site” value in series [6] was “also inhibits the activity”. For the same molecule, the “dissociation rate from the proteasome” value at β5 proteasome is reported as “faster dissociation rate”. In addition, the “inhibition of activity of the β2 site” value in series [7] is listed as “also inhibits the activity”.
